Key:
[1] = parenteral administration; cited from earlier work
[2] = saturated aqueous solution at 20° C.; cited from earlier work
[3] = toxicity / tolerability on parenteral use; settings: anion is a naturally occurring mammalian metabolite
[4] = stability of the powder / shelf life; format: physicochemical
pH of aqueous solution = format: physicochemical

For `[Ca+2].[Cl-].[Cl-]` [Calcium chloride], the “venous toxicity” value [1] is listed as “appreciably toxic to veins”.
In the case of “D-gluconic acid calcium salt [Calcium gluconate]”, the “pH of saturated solution” value [2] is listed as 6-7.
With “calcium 3-hydroxy-3-methylbutyrate [CaHMB]” the “toxicity” value [3] was “non-toxic”, the “powder stability / shelf life” value [4] was “stable powders with long shelf lives” and the “pH of saturated aqueous solution” value (pH of aqueous solution; 27% by weight saturated aqueous solution at 20° C.) was “neutral or slightly alkaline”. For the same molecule, the “pH of aqueous solution in distilled water” value (pH of aqueous solution; if pure, dissolved in distilled water) was “nearly neutral or slightly alkaline”.

Reference: patent US20040106678A1, “Compositions for the parenteral administration of calcium and magnesium” (priority 2002, published 2004)
